Reference: US10173982B2, “Picolinamides as fungicides” (Dow AgroSciences LLC, priority 2016, dated 2019)
Like-named read-outs stand apart in the source and are kept apart here.

What was measured:
Assay type in all cases: in vivo
Zymoseptoria tritici = experiment: Fungicidal activity: leaf blotch of wheat (SEPTTR), percent disease control on wheat seedlings; details: Zymoseptoria tritici; for pest or weed control at 121.5 g/ha: LV (low volume) activity at 121.5 g/H; for pest or weed control at 100 ppm: HV (high volume) activity at 100 ppm
Protocol: Technical grades of materials were dissolved in acetone, which were then mixed with nine volumes of water containing 110 ppm Triton X-100. The fungicide solutions were applied onto wheat seedlings using an automated booth sprayer to run-off. All sprayed plants were allowed to air dry prior to further handling. All fungicides were evaluated using the aforementioned method for their activity vs. all target diseases, unless stated otherwise. Wheat leaf blotch and brown rust activity were also evaluated using track spray applications, in which case the fungicides were formulated as EC formulations, containing 0.1% Trycol 5941 in the spray solutions. Wheat plants (variety Yuma) were grown from seed in a greenhouse in 50% mineral soil/50% soil-less Metro mix until the first leaf was fully emerged, with 7-10 seedlings per pot. These plants were inoculated with an aqueous spore suspension of Zymoseptoria tritici either prior to or after fungicide treatments. After inoculation the plants were kept in 100% relative humidity (one day in a dark dew chamber followed by two to three days in a lighted dew chamber at 20° C.) to permit spores to germinate and infect the leaf. The plants were then transferred to a greenhouse set at 20° C. for disease to develop. When disease symptoms were fully expressed on the 1st leaves of untreated plants, infection levels were assessed on a scale of 0 to 100 percent disease severity. Percent disease control was calculated using the ratio of disease severity on treated plants relative to untreated plants.

Puccinia triticina = experiment: Fungicidal activity: wheat brown rust (PUCCRT), percent disease control on wheat seedlings; details: Puccinia triticina; for pest or weed control at 121.5 g/ha: LV (low volume) activity at 121.5 g/H; for pest or weed control at 100 ppm: HV (high volume) activity at 100 ppm
Protocol: Technical grades of materials were dissolved in acetone, which were then mixed with nine volumes of water containing 110 ppm Triton X-100. The fungicide solutions were applied onto wheat seedlings using an automated booth sprayer to run-off. All sprayed plants were allowed to air dry prior to further handling. All fungicides were evaluated using the aforementioned method for their activity vs. all target diseases, unless stated otherwise. Wheat leaf blotch and brown rust activity were also evaluated using track spray applications, in which case the fungicides were formulated as EC formulations, containing 0.1% Trycol 5941 in the spray solutions. Wheat plants (variety Yuma) were grown from seed in a greenhouse in 50% mineral soil/50% soil-less Metro mix until the first leaf was fully emerged, with 7-10 seedlings per pot. These plants were inoculated with an aqueous spore suspension of Puccinia triticina either prior to or after fungicide treatments. After inoculation the plants were kept in a dark dew room at 22° C. with 100% relative humidity overnight to permit spores to germinate and infect the leaf. The plants were then transferred to a greenhouse set at 24° C. for disease to develop. Fungicide formulation, application and disease assessment followed the procedures as described in the Example A. Results of the evaluations are shown below in Table 4.

Phakopsora pachyrhizi = experiment: Fungicidal activity: Asian soybean rust (PHAKPA), disease control on soybean seedlings; details: High volume at 25 ppm
Protocol: Technical grades of materials were dissolved in acetone, which were then mixed with nine volumes of water containing 0.011% Tween 20. The fungicide solutions were applied onto soybean seedlings using an automated booth sprayer to run-off. All sprayed plants were allowed to air dry prior to further handling.
Soybean plants (variety Williams 82) were grown in soil-less Metro mix, with one plant per pot. Two weeks old seedlings were used for testing. Plants were inoculated either 3 days prior to or 1 day after fungicide treatments. Plants were incubated for 24 h in a dark dew room at 22° C. and 100% relative humidity then transferred to a growth room at 23° C. for disease to develop. Disease severity was assessed on the sprayed leaves.

[1] = 24 h, 1 Day Protectant, read-out: SEPTTR 1DP disease control rating
[2] = 72 h, 3 Day Curative, read-out: SEPTTR 3DC disease control rating
[3] = 24 h, 1 Day Protectant, read-out: PUCCRT 1DP disease control rating
[4] = 72 h, 3 Day Curative, read-out: PUCCRT 3DC disease control rating
[5] = 24 h, 1 Day Protectant, read-out: PHAKPA 1DP disease control rating
[6] = 72 h, 3 Day Curative, read-out: PHAKPA 3DC disease control rating

| SMILES | pest or weed control at 121.5 g/ha (Zymoseptoria tritici; [1]) | pest or weed control at 121.5 g/ha (Zymoseptoria tritici; [2]) | pest or weed control at 121.5 g/ha (Puccinia triticina; [3]) | pest or weed control at 121.5 g/ha (Puccinia triticina; [4]) | pest or weed control at 25 ppm (Phakopsora pachyrhizi; [5]) | pest or weed control at 25 ppm (Phakopsora pachyrhizi; [6]) | pest or weed control at 100 ppm (Zymoseptoria tritici; [1]) | pest or weed control at 100 ppm (Zymoseptoria tritici; [2]) | pest or weed control at 100 ppm (Puccinia triticina; [3]) | pest or weed control at 100 ppm (Puccinia triticina; [4]) |
| --- | --- | --- | --- | --- | --- | --- | --- | --- | --- | --- |
| COc1ccnc(C(=O)N[C@@H](C)C(=O)O[C@@H](C)[C@H](SCc2ccccc2)c2ccccc2)c1OC(C)=O [Compound 68] | > 80% | ≤ 80% | > 80% | > 80% | > 80% | ≤ 80% | – | – | – | – |
| COc1ccnc(C(=O)N[C@@H](C)C(=O)O[C@@H](C)[C@H](Sc2ccc(F)cc2C)c2ccc(F)cc2C)c1OC(C)=O [Compound 76] | > 80% | > 80% | ≤ 80% | ≤ 0% | ≤ 80% | ≤ 80% | – | – | – | – |
| COc1ccnc(C(=O)N[C@@H](C)C(=O)O[C@@H](C)[C@H](Sc2ccccc2)c2ccccc2)c1OC(C)=O [Compound 82] | ≤ 80% | ≤ 80% | > 80% | ≤ 80% | ≤ 80% | ≤ 80% | – | – | – | – |
| COc1ccnc(C(=O)N[C@@H](C)C(=O)O[C@@H](C)[C@@H](c2ccccc2)[S+]([O-])c2ccc(F)cc2)c1OC(C)=O (stereo partly shown) [Compound 62] | ≤ 80% | ≤ 80% | ≤ 0% | ≤ 0% | ≤ 0% | ≤ 0% | – | – | – | – |
| COc1ccnc(C(=O)N[C@@H](C)C(=O)O[C@@H](C)[C@H](SC(C)C)c2ccccc2)c1OC(C)=O [Compound 70] | ≤ 80% | > 80% | > 80% | ≤ 80% | > 80% | ≤ 80% | – | – | – | – |
| COc1ccnc(C(=O)N[C@@H](C)C(=O)O[C@@H](C)[C@H](Sc2ccc(C)cc2)c2ccccc2)c1OC(C)=O [Compound 66] | > 80% | ≤ 80% | ≤ 80% | ≤ 80% | ≤ 80% | ≤ 80% | – | – | – | – |
| COc1ccnc(C(=O)N[C@@H](C)C(=O)O[C@@H](C)[C@H](Sc2ccccc2)c2ccccc2)c1OCOC(C)=O [Compound 80] | ≤ 80% | ≤ 80% | > 80% | ≤ 80% | ≤ 80% | ≤ 80% | – | – | – | – |
| COc1ccnc(C(=O)N[C@@H](C)C(=O)O[C@@H](C)[C@H](Sc2cccc(Cl)c2)c2ccccc2)c1OC(C)=O [Compound 65] | > 80% | ≤ 0% | > 80% | ≤ 80% | ≤ 80% | ≤ 80% | – | – | – | – |
| COc1ccnc(C(=O)N[C@@H](C)C(=O)O[C@@H](C)[C@H](Sc2ccccc2)c2ccccc2)c1OCOC(=O)C(C)C [Compound 79] | > 80% | > 80% | > 80% | ≤ 80% | ≤ 80% | ≤ 80% | – | – | – | – |
| COc1ccnc(C(=O)N[C@@H](C)C(=O)O[C@@H](C)[C@H](Sc2ccccc2)c2ccc(F)cc2C)c1OC(C)=O [Compound 78] | > 80% | > 80% | ≤ 80% | ≤ 0% | ≤ 80% | ≤ 0% | – | – | – | – |
| COc1ccnc(C(=O)N[C@@H](C)C(=O)O[C@@H](C)[C@@H](c2ccccc2)S(=O)(=O)Cc2ccccc2)c1O [Compound 48] | – | – | – | – | – | – | ≤ 80% | ≤ 80% | ≤ 0% | ≤ 0% |
